For experiment [1], the target named is T1, SARS-CoV-2 PLpro (nsp3 1564–1878) (Severe acute respiratory syndrome coronavirus 2, UniProt P0DTD1). Kind of experiment: biochemical. Also on record: FRET-quenched peptide (Pro3) cleavage by PLpro, 10 min pre-incubation, slope over 20 min, normalised to no-compound control. To be noted: read-out: % of control remaining.
The target in experiment [2] is T1, SARS-CoV-2 PLpro (nsp3 1564–1878). Kind of experiment: biochemical. Also on record: FRET-quenched peptide (Pro3) cleavage by PLpro, 10 min pre-incubation, slope over 20 min, normalised to no-compound control. To be noted: read-out: % of control remaining. This is another data set of the same source.

Drawing on paper PMC8286840, “Identifying SARS-CoV-2 antiviral compounds by screening for small molecule inhibitors of Nsp3 papain-like protease” (Biochemical Journal, 2021), this text covers remaining activity for 31 compounds.

Molecules are shown by their SMILES. Where a name gives a salt, the structure may show the parent alone. Read-outs that look alike come from different tables or passages of the source.

Turning to `C[N+]1(C)CCC[C@H]1C(=O)[O-]` [Stachydrine], the remaining activity at 3.75 µM in experiment [1] (Well no.=6917, high concentration screen) stood at 93.7%; in experiment [1] (Well no.=7414, high concentration screen), 102%. Also, the remaining activity at 1.25 µM in experiment [2] (Well no.=6917, low concentration screen) is 109%; in experiment [2] (Well no.=7414, low concentration screen), 104%.
As for `COc1cc(NC(C)CCCN)c2ncccc2c1` (centres unmarked) [Primaquine], the remaining activity at 3.75 µM in experiment [1] (Well no.=2153, high concentration screen) amounted to 98.9%. The remaining activity at 1.25 µM in experiment [2] (Well no.=2153, low concentration screen) turned out to be 97.8%.
For the compound `Cc1nc(Nc2ncc(C(=O)Nc3c(C)cccc3Cl)s2)cc(N2CCN(CCO)CC2)n1` [Dasatinib], the remaining activity at 3.75 µM in experiment [1] (Well no.=2933, high concentration screen) was found to be 97.3%. Also, in experiment [2] (Well no.=2933, low concentration screen), the remaining activity at 1.25 µM was determined as 101%.
`CCCCCCCCCCCCCCCC(=O)O[C@@H]1[C@@H](O)[C@@H](O)[C@@H]([C@H](NC(=O)[C@@H]2C[C@@H](CCC)CN2C)[C@H](C)Cl)O[C@@H]1SC` [Clindamycin palmitate.HCl]: the remaining activity at 3.75 µM in experiment [1] (Well no.=1864, high concentration screen) turned out to be 102%. Also, the remaining activity at 1.25 µM in experiment [2] (Well no.=1864, low concentration screen) worked out at 100%.
Regarding `CCCCCCCCCCCCC/C=C/[C@@H](O)[C@H](CO)NC(C)=O` [C2 Ceramide], the remaining activity at 3.75 µM in experiment [1] (Well no.=4363, high concentration screen) came out at 104%. For the same compound, in experiment [2] (Well no.=4363, low concentration screen), the remaining activity at 1.25 µM worked out at 108%.
With `COC(=O)C1=C(C)NC(C)=C(C(=O)OCCCN2CCC(c3ccccc3)(c3ccccc3)CC2)[C@H]1c1cccc([N+](=O)[O-])c1` [Niguldipine], in experiment [1], the remaining activity at 3.75 µM turned out to be 100%. In addition, the remaining activity at 1.25 µM in experiment [2] amounted to 105%.
On to `CCNCc1nc2c(N)nc3ccccc3c2n1CC(C)(C)O` [Gardiquimod trifluoroacetate], for which the remaining activity at 3.75 µM in experiment [1] (Well no.=8131, high concentration screen) was determined as 103%. In addition, the remaining activity at 1.25 µM in experiment [2] (Well no.=8131, low concentration screen) is 105%.
Take `CC(C)/N=c1\cc2n(-c3ccc(Cl)cc3)c3ccccc3nc-2cc1Nc1ccc(Cl)cc1` [Clofazimine]: in experiment [1] (Well no.=5649, high concentration screen), the remaining activity at 3.75 µM is 100%. The remaining activity at 1.25 µM in experiment [2] (Well no.=5649, low concentration screen) turned out to be 101%.
Take `N#C/C(=C\c1ccc(O)c(O)c1)C(=O)N1CCc2ccccc21` [Tyrphostin AG 528]: in experiment [1] (Well no.=1193, high concentration screen), the remaining activity at 3.75 µM came out at 93.3%. Also, the remaining activity at 1.25 µM in experiment [2] (Well no.=1193, low concentration screen) stood at 92.5%.
As for `CC1(C)CCCC(C)(C)N1[O]` [TEMPO], the remaining activity at 3.75 µM in experiment [1] was 99.1%. Besides, the remaining activity at 1.25 µM in experiment [2] amounted to 95.5%.
In the case of `O=C(O)CC[C@H](NC(=O)N[C@@H](CCCCNC(=O)[C@H](Cc1ccc2ccccc2c1)NC(=O)[C@H]1CC[C@H](CNC(=O)CN2CCN(CC(=O)O)CCN(CC(=O)O)CCN(CC(=O)O)CC2)CC1)C(=O)O)C(=O)O` [Vipivotide tetraxetan], the remaining activity at 3.75 µM in experiment [1] (Well no.=7834, high concentration screen) is 104%. In addition, in experiment [2] (Well no.=7834, low concentration screen), the remaining activity at 1.25 µM worked out at 103%.
As for `COc1cc(Nc2ncc(F)c(Nc3ccc4c(n3)NC(=O)C(C)(C)O4)n2)cc(OC)c1OC` [R406 (free base)], the remaining activity at 3.75 µM in experiment [1] (Well no.=4951, high concentration screen) was determined as 102%. The remaining activity at 1.25 µM in experiment [2] (Well no.=4951, low concentration screen) was found to be 102%.
For `O=C(O)[C@@H](O)Cc1ccccc1` [(S)-2-Hydroxy-3-phenylpropanoic acid], the remaining activity at 3.75 µM in experiment [1] (Well no.=7173, high concentration screen) came out at 88.8%. Further, in experiment [2] (Well no.=7173, low concentration screen), the remaining activity at 1.25 µM turned out to be 96.3%.
Turning to `N=C1Sc2ccccc2C2=NCCCN12` [PD 404,182], the remaining activity at 3.75 µM in experiment [1] (Well no.=1096, high concentration screen) is 101%. In addition, in experiment [2] (Well no.=1096, low concentration screen), the remaining activity at 1.25 µM came to 98.8%.
Turning to `COCCc1ccc(OCC(O)CNC(C)C)cc1` (centres unmarked) [Metoprolol], the remaining activity at 3.75 µM in experiment [1] (Well no.=1959, high concentration screen) amounted to 102%. Besides, the remaining activity at 1.25 µM in experiment [2] (Well no.=1959, low concentration screen) is 102%.
For the compound `C[C@]12C=CC(=O)N[C@@H]1CC[C@@H]1[C@@H]2CC[C@]2(C)[C@@H](C(=O)Nc3cc(C(F)(F)F)ccc3C(F)(F)F)CC[C@@H]12` [Dutasteride], the remaining activity at 3.75 µM in experiment [1] (Well no.=5107, high concentration screen) amounted to 107%. Further, the remaining activity at 1.25 µM in experiment [2] (Well no.=5107, low concentration screen) was 106%.
As for `COc1cc(C(=O)NS(=O)(=O)c2ccccc2C)ccc1Cc1cn(C)c2ccc(NC(=O)OC3CCCC3)cc12` [Zafirlukast], the remaining activity at 3.75 µM in experiment [1] (Well no.=8579, high concentration screen) was 101%. Besides, the remaining activity at 1.25 µM in experiment [2] (Well no.=1762, low concentration screen) worked out at 99.5%; in experiment [2] (Well no.=8579, low concentration screen), 102%.
In the case of `CCCCCC/C=C/CCCCCCCCC(=O)O` [10(E)-Heptadecenoic acid], the remaining activity at 3.75 µM in experiment [1] (Well no.=4312, high concentration screen) came to 96.7%. Moreover, the remaining activity at 1.25 µM in experiment [2] (Well no.=4312, low concentration screen) is 104%.
For `CCn1nc(C)cc1C(=O)Nc1nc2cc(C(N)=O)cc(OC)c2n1C/C=C/Cn1c(NC(=O)c2cc(C)nn2CC)nc2cc(C(N)=O)cc(OCCCN3CCOCC3)c21` [diABZI STING agonist-1 (trihydrochloride)], in experiment [1] (Well no.=8553, high concentration screen), the remaining activity at 3.75 µM came to 102%. Besides, in experiment [2] (Well no.=8553, low concentration screen), the remaining activity at 1.25 µM came to 110%.
`Cc1ccc(S(=O)(=O)NC(=O)NN2CC3CCC[C@@H]3C2)cc1` (stereo in doubt) [Gliclazide]: the remaining activity at 3.75 µM in experiment [1] (Well no.=2176, high concentration screen) turned out to be 102%. Further, the remaining activity at 1.25 µM in experiment [2] (Well no.=2176, low concentration screen) came out at 101%.
As to `CO[C@H](C)[C@](O)(C(=O)OCC1=CCN2CC[C@H](O)[C@@H]12)C(C)C` [Heliotrine], the remaining activity at 3.75 µM in experiment [1] (Well no.=3149, high concentration screen) was determined as 104%. In addition, the remaining activity at 1.25 µM in experiment [2] (Well no.=3149, low concentration screen) worked out at 101%.
For the compound `C[C@]1(c2nc3c(C(N)=O)cccc3[nH]2)CCCN1` [ABT-888 (Veliparib)], in experiment [1] (Well no.=5222, high concentration screen), the remaining activity at 3.75 µM is 94.2%. In addition, in experiment [2] (Well no.=5222, low concentration screen), the remaining activity at 1.25 µM stood at 95.8%.
Turning to `Oc1ccc(C2CNCc3sccc32)cc1O` (centres unmarked) [SKF 89626], the remaining activity at 3.75 µM in experiment [1] (Well no.=1456, high concentration screen) was 99.7%. Besides, the remaining activity at 1.25 µM in experiment [2] (Well no.=1456, low concentration screen) was determined as 98.5%.
For `O=C1CC[C@@]2(O)[C@H]3Cc4ccc(O)c5c4[C@@]2(CCN3CC2CC2)[C@H]1O5` [Naltrexone (Hydrochloride)], the remaining activity at 3.75 µM in experiment [1] (Well no.=8147, high concentration screen) worked out at 95.1%. Also, the remaining activity at 1.25 µM in experiment [2] (Well no.=8147, low concentration screen) was determined as 98.3%.
Consider `CCC(=O)NC[C@@H]1C[C@H]1c1cccc2c1CCO2` [Tasimelteon], for which the remaining activity at 3.75 µM in experiment [1] (Well no.=6230, high concentration screen) worked out at 99%. Moreover, in experiment [2] (Well no.=6230, low concentration screen), the remaining activity at 1.25 µM worked out at 97.6%.
With `CCN1CCN(C(=O)Cc2ccc(Nc3ncc(F)c(Nc4ccc(C(=O)Nc5ccccc5Cl)cc4)n3)cc2)CC1` [Aurora A Inhibitor I], the remaining activity at 3.75 µM in experiment [1] (Well no.=5241, high concentration screen) is 102%. In addition, in experiment [2] (Well no.=5241, low concentration screen), the remaining activity at 1.25 µM stood at 95.1%.
In the case of `CC1(C)S[C@@H]2[C@H](NC(=O)[C@H](N)c3ccccc3)C(=O)N2[C@H]1C(=O)O` [Ampicillin (sodium)], the remaining activity at 3.75 µM in experiment [1] (Well no.=8708, high concentration screen) came out at 101%. The remaining activity at 1.25 µM in experiment [2] (Well no.=8708, low concentration screen) was 101%.
Consider `CN1CCC(=C2c3ccccc3C=Cc3ccccc32)CC1` [Cyproheptadine (hydrochloride)], for which the remaining activity at 3.75 µM in experiment [1] (Well no.=6994, high concentration screen) is 99.7%. Further, the remaining activity at 1.25 µM in experiment [2] (Well no.=6994, low concentration screen) was 97.6%.
In the case of `C[C@@]12N[C@@H](Cc3ccccc31)c1ccccc12` [(-)-MK-801 hydrogen maleate], in experiment [1] (Well no.=799, high concentration screen), the remaining activity at 3.75 µM turned out to be 99.2%. The remaining activity at 1.25 µM in experiment [2] (Well no.=799, low concentration screen) was determined as 101%.
In the case of `CCn1c(=O)c2[nH]c(-c3ccccc3)nc2n(CC)c1=O` [1,3-Diethyl-8-phenylxanthine], the remaining activity at 3.75 µM in experiment [1] (Well no.=204, high concentration screen) was 100%. Also, in experiment [2] (Well no.=204, low concentration screen), the remaining activity at 1.25 µM stood at 98.5%.
As to `BrC1C(Br)C(Br)C(Br)C(Br)C1Br` (centres unmarked) [1,2,3,4,5,6-Hexabromocyclohexane - 1,2,3,4,5,6-Hexabromocyclohexane], the remaining activity at 3.75 µM in experiment [1] (Well no.=2524, high concentration screen) was 97.7%. In addition, the remaining activity at 1.25 µM in experiment [2] (Well no.=2524, low concentration screen) was determined as 96.3%.
